Measurements as given in PubChem BioAssay (NCI).
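Assay format: 96-well plates, 48-hour exposure. Here, GI50 denotes the concentration required for 50% inhibition of growth. At the TGI there is no net growth.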

System: SF-268 CNS
Assay: inhibition of tumour cell growth, NCI panel, 48 h

`Cc1ccc2c(c1)CC1(Cc3ccccc3C1=O)C2=O` (centres undefined) and `CSc1cc(Cl)c(C)cc1S(=O)(=O)NC(=O)NNc1cccc(C(F)(F)F)n1` cannot be ordered by TGI: over 100 µM for the first, over 100 µM for the second.

Going from `CN1CCN(CCCNc2nc3ccc(Oc4ccc(NC(=O)Nc5cc(C(F)(F)F)ccc5F)cc4)cc3[nH]2)CC1` to `CCO/C=N\C1=C(C#N)SC2=N/C(=C\c3ccc(OC)cc3)C(=O)N21`, the TGI rises from 8.04 µM to over 100 µM.

`CN1CCN(CCCNc2nc3ccc(Oc4ccc(NC(=O)Nc5cc(C(F)(F)F)ccc5F)cc4)cc3[nH]2)CC1` was tested, and the GI50 was 4.17 µM.

System: NCI/ADR-RES ovarian
Assay: inhibition of tumour cell growth, NCI panel, 48 h

First: CC(=O)OC1C(Oc2c(C)cc3c(c2O)[C@@H](C)CC[C@@H]3[C@@H](C)CCC=C(C)C)OCC(O)C1O (some centres undefined)
Second: COc1cccc2c1C(=O)c1c(O)c3c(c(O)c1C2=O)CC(O)(C(=O)CO)CC3OC1CC(N2CCOCC2C#N)C(O)C(C)O1 (centres undefined)
The TGI of the first is 11000-fold higher: 40.6 µM for the first, 0.00357 µM for the second.

First: Cc1ccc2c(c1)CC1(Cc3ccccc3C1=O)C2=O (centres undefined)
Second: Cc1sc2nc(-c3cccc([N+](=O)[O-])c3)c(/C=N/N=C(N)N)n2c1C
The TGI of the first is higher: over 100 µM for the first, 45.1 µM for the second.

`CSc1cc(Cl)c(C)cc1S(=O)(=O)NC(=O)NNc1cccc(C(F)(F)F)n1` and `CN1CCN(CCCNc2nc3ccc(Oc4ccc(NC(=O)Nc5cc(C(F)(F)F)ccc5F)cc4)cc3[nH]2)CC1` cannot be ordered by TGI: over 100 µM for the first, over 25 µM for the second.

Work on `CCO/C=N\C1=C(C#N)SC2=N/C(=C\c3ccc(OC)cc3)C(=O)N21` yielded a TGI of over 100 µM.

Compound `CN1CCN(CCCNc2nc3ccc(Oc4ccc(NC(=O)Nc5cc(C(F)(F)F)ccc5F)cc4)cc3[nH]2)CC1` has a GI50 of over 25 µM.

System: NCI-H522 lung
Assay: inhibition of tumour cell growth, NCI panel, 48 h

First: CC(=O)OC1C(Oc2c(C)cc3c(c2O)[C@@H](C)CC[C@@H]3[C@@H](C)CCC=C(C)C)OCC(O)C1O (some centres undefined)
Second: COc1cccc2c1C(=O)c1c(O)c3c(c(O)c1C2=O)CC(O)(C(=O)CO)CC3OC1CC(N2CCOCC2C#N)C(O)C(C)O1 (centres undefined)
The TGI of the first is higher: 36.4 µM for the first, under 0.0001 µM for the second.

Going from `Cc1ccc2c(c1)CC1(Cc3ccccc3C1=O)C2=O` (centres undefined) to `Cc1sc2nc(-c3cccc([N+](=O)[O-])c3)c(/C=N/N=C(N)N)n2c1C`, the TGI falls from over 100 µM to 3.17 µM.

Compared with `CSc1cc(Cl)c(C)cc1S(=O)(=O)NC(=O)NNc1cccc(C(F)(F)F)n1`, `CN1CCN(CCCNc2nc3ccc(Oc4ccc(NC(=O)Nc5cc(C(F)(F)F)ccc5F)cc4)cc3[nH]2)CC1` is lower in TGI: over 100 µM for the first, 7.27 µM for the second.

With `CCO/C=N\C1=C(C#N)SC2=N/C(=C\c3ccc(OC)cc3)C(=O)N21` the TGI was over 100 µM.

`CN1CCN(CCCNc2nc3ccc(Oc4ccc(NC(=O)Nc5cc(C(F)(F)F)ccc5F)cc4)cc3[nH]2)CC1` was tested, and the GI50 was 3.8 µM.

System: MALME-3M melanoma
Assay: inhibition of tumour cell growth, NCI panel, 48 h

Compared with `Cc1ccc2c(c1)CC1(Cc3ccccc3C1=O)C2=O` (centres undefined), `Cc1sc2nc(-c3cccc([N+](=O)[O-])c3)c(/C=N/N=C(N)N)n2c1C` is lower in TGI: over 100 µM for the first, 3.71 µM for the second.

First: CSc1cc(Cl)c(C)cc1S(=O)(=O)NC(=O)NNc1cccc(C(F)(F)F)n1
Second: CN1CCN(CCCNc2nc3ccc(Oc4ccc(NC(=O)Nc5cc(C(F)(F)F)ccc5F)cc4)cc3[nH]2)CC1
The TGI of the first is higher: over 100 µM for the first, 9.67 µM for the second.

For `CCO/C=N\C1=C(C#N)SC2=N/C(=C\c3ccc(OC)cc3)C(=O)N21`, the TGI was over 100 µM.

`CN1CCN(CCCNc2nc3ccc(Oc4ccc(NC(=O)Nc5cc(C(F)(F)F)ccc5F)cc4)cc3[nH]2)CC1` gave a GI50 of 4.69 µM.

System: ACHN renal
Assay: inhibition of tumour cell growth, NCI panel, 48 h

`CC(=O)OC1C(Oc2c(C)cc3c(c2O)[C@@H](C)CC[C@@H]3[C@@H](C)CCC=C(C)C)OCC(O)C1O` (some centres undefined) and `CN1CCN(CCCNc2nc3ccc(Oc4ccc(NC(=O)Nc5cc(C(F)(F)F)ccc5F)cc4)cc3[nH]2)CC1` cannot be ordered by TGI: 35.5 µM for the first, over 25 µM for the second.

Going from `Cc1ccc2c(c1)CC1(Cc3ccccc3C1=O)C2=O` (centres undefined) to `Cc1sc2nc(-c3cccc([N+](=O)[O-])c3)c(/C=N/N=C(N)N)n2c1C`, the TGI falls from over 100 µM to 3.08 µM.

`CSc1cc(Cl)c(C)cc1S(=O)(=O)NC(=O)NNc1cccc(C(F)(F)F)n1` and `CCO/C=N\C1=C(C#N)SC2=N/C(=C\c3ccc(OC)cc3)C(=O)N21` cannot be ordered by TGI: over 100 µM for the first, over 100 µM for the second.

With `CN1CCN(CCCNc2nc3ccc(Oc4ccc(NC(=O)Nc5cc(C(F)(F)F)ccc5F)cc4)cc3[nH]2)CC1` the GI50 was 17.5 µM.

System: DU-145 prostate
Assay: inhibition of tumour cell growth, NCI panel, 48 h

Going from `CC(=O)OC1C(Oc2c(C)cc3c(c2O)[C@@H](C)CC[C@@H]3[C@@H](C)CCC=C(C)C)OCC(O)C1O` (some centres undefined) to `COc1cccc2c1C(=O)c1c(O)c3c(c(O)c1C2=O)CC(O)(C(=O)CO)CC3OC1CC(N2CCOCC2C#N)C(O)C(C)O1` (centres undefined), the TGI rises from 29.8 µM to over 100 µM.

`Cc1ccc2c(c1)CC1(Cc3ccccc3C1=O)C2=O` (centres undefined) and `CSc1cc(Cl)c(C)cc1S(=O)(=O)NC(=O)NNc1cccc(C(F)(F)F)n1` cannot be ordered by TGI: over 100 µM for the first, over 100 µM for the second.

Compared with `CN1CCN(CCCNc2nc3ccc(Oc4ccc(NC(=O)Nc5cc(C(F)(F)F)ccc5F)cc4)cc3[nH]2)CC1`, `CCO/C=N\C1=C(C#N)SC2=N/C(=C\c3ccc(OC)cc3)C(=O)N21` is higher in TGI: 12.5 µM for the first, over 100 µM for the second.

With `CN1CCN(CCCNc2nc3ccc(Oc4ccc(NC(=O)Nc5cc(C(F)(F)F)ccc5F)cc4)cc3[nH]2)CC1` the GI50 was 5.17 µM.

System: HOP-92 NSCLC
Assay: inhibition of tumour cell growth, NCI panel, 48 h

Going from `Cc1ccc2c(c1)CC1(Cc3ccccc3C1=O)C2=O` (centres undefined) to `CN1CCN(CCCNc2nc3ccc(Oc4ccc(NC(=O)Nc5cc(C(F)(F)F)ccc5F)cc4)cc3[nH]2)CC1`, the TGI falls from over 100 µM to 12.1 µM.

`CCO/C=N\C1=C(C#N)SC2=N/C(=C\c3ccc(OC)cc3)C(=O)N21` was tested, and the TGI was over 100 µM.

`CN1CCN(CCCNc2nc3ccc(Oc4ccc(NC(=O)Nc5cc(C(F)(F)F)ccc5F)cc4)cc3[nH]2)CC1` was tested, and the GI50 was 2.91 µM.

System: SF-295 CNS
Assay: inhibition of tumour cell growth, NCI panel, 48 h

First: CC(=O)OC1C(Oc2c(C)cc3c(c2O)[C@@H](C)CC[C@@H]3[C@@H](C)CCC=C(C)C)OCC(O)C1O (some centres undefined)
Second: CSc1cc(Cl)c(C)cc1S(=O)(=O)NC(=O)NNc1cccc(C(F)(F)F)n1
The TGI of the first is lower: 35.3 µM for the first, over 100 µM for the second.

Going from `Cc1ccc2c(c1)CC1(Cc3ccccc3C1=O)C2=O` (centres undefined) to `Cc1sc2nc(-c3cccc([N+](=O)[O-])c3)c(/C=N/N=C(N)N)n2c1C`, the TGI falls from over 100 µM to 2.95 µM.
